Like-named read-outs stand apart in the source and are kept apart here.
Key:
O. volvulus L5 larvae = test: O. volvulus L5 ex vivo assay, MTT viability; format: cell-based, Onchocerca volvulus; conditions: Day 21, 1 uM
Experimental: This culturing medium was then added in transwell 24-well plates containing human umbilical vein endothelial cell (HUVEC) monolayers, containing the L4 larvae. A week prior to conducting an assay, the cultured O. volvulus larvae (L5) were transferred into a Petri dish containing fresh medium. […] After the transfer of O. volvulus L5 to the plates, the test compounds were dissolved in DMSO, added to each well, and incubated at 37 °C in a 5% CO2. The media containing freshly prepared compounds were partially replaced every 2–3 days for 14 days. After 14 days, the media were completely replaced. The untreated control contains the media described above with a final concentration of 0.05% DMSO. […] The motility was measured visually by two operators. […] Following washout and incubation during 1 h in PBS under 5% CO2, worms were observed under an inverted microscope. Worms were considered dead if no staining or less than 50% within the worm was observed. Otherwise, if worms stained blue or more than 50% stained, then they are considered alive. All test treatments were performed in duplicates. Significance was determined using a t test.

P-gp (MDR1) = biological target: T1, P-gp (MDR1) (Homo sapiens, UniProt P08183); test: MDCK/MDR1 permeability and efflux; format: in vitro ADME; conditions: dog
T1 construct: expressed in transfected cells; host or cells: MDCK (Madin Darby canine kidney) cells
Text: Our approach was to target compounds with efflux ratio (ER) >2.5 in the MDCK cell line transfected with MDR1 (multidrug resistance-1 transfected Madin Darby canine kidney cell line). […] Our goal was to impart structural elements designed to impart Pgp recognition.

[1] = test system: L. sigmodontis adult worms; conditions: for adult worm burden reduction: figure prints reduction as negative value; for reduction of adult worm burden: mice, 30 mg/kg BID
hERG = biological target: T2, hERG (Homo sapiens, UniProt Q12809); test: hERG inhibition; format: cell-based; conditions: human
T2 construct: expressed in transfected cells

[2] = THLE-2 cytotoxicity assay (ATP); conditions: human
Summary of the method: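 THLE-2 cells in supplemented LHC-8 medium were exposed for 24 or 72 h to final concentrations of 0.01–300 μM. Viability was read as ATP by CellTiter-Glo luminescence and normalized to DMSO vehicle. IC50 came from nonlinear regression of dose-response curves.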

[3] = Plasma protein binding, human; format: in vitro ADME; conditions: read-out: Plasma Protein Binding %, h (converted)
[4] = Plasma protein binding, rat; format: in vitro ADME; conditions: read-out: Plasma Protein Binding %, r (converted)
CYP3A4 = CYP3A4 (Homo sapiens, UniProt P08684); test: Cytochrome P450 inhibition, 3A4; format: in vitro ADME; conditions: read-out: Cytochrome P450s IC50, 3A4
CYP2D6 = CYP2D6 (Homo sapiens, UniProt P10635); test: Cytochrome P450 inhibition, 2D6; format: in vitro ADME; conditions: read-out: Cytochrome P450s IC50, 2D6
CYP2C9 = CYP2C9 (Homo sapiens, UniProt P11712); test: Cytochrome P450 inhibition, 2C9; format: in vitro ADME; conditions: read-out: Cytochrome P450s IC50, 2C9
CYP2C19 = CYP2C19 (Homo sapiens, UniProt P33261); test: Cytochrome P450 inhibition, 2C19; format: in vitro ADME; conditions: read-out: Cytochrome P450s IC50, 2C19
CYP2C8 = biological target: T3, CYP2C8 (Homo sapiens, UniProt P10632); test: Cytochrome P450 inhibition, 2C8; format: in vitro ADME; conditions: read-out: Cytochrome P450s IC50, 2C8
T3 sequence (P10632 1-490): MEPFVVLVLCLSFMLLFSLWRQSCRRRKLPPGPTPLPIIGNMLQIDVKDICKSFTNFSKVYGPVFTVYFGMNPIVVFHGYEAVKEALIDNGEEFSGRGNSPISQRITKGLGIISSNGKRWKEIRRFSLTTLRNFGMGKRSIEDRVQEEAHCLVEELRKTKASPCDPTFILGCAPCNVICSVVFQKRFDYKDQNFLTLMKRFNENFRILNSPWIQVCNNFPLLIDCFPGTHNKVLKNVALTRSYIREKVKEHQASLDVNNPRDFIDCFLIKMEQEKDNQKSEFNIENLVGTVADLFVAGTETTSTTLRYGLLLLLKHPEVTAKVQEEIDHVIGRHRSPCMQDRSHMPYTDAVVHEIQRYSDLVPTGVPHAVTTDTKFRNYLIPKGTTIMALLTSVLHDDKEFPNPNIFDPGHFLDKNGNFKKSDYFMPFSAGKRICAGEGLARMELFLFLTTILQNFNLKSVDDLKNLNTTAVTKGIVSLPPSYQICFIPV

T2 sequence (Q12809 whole entry): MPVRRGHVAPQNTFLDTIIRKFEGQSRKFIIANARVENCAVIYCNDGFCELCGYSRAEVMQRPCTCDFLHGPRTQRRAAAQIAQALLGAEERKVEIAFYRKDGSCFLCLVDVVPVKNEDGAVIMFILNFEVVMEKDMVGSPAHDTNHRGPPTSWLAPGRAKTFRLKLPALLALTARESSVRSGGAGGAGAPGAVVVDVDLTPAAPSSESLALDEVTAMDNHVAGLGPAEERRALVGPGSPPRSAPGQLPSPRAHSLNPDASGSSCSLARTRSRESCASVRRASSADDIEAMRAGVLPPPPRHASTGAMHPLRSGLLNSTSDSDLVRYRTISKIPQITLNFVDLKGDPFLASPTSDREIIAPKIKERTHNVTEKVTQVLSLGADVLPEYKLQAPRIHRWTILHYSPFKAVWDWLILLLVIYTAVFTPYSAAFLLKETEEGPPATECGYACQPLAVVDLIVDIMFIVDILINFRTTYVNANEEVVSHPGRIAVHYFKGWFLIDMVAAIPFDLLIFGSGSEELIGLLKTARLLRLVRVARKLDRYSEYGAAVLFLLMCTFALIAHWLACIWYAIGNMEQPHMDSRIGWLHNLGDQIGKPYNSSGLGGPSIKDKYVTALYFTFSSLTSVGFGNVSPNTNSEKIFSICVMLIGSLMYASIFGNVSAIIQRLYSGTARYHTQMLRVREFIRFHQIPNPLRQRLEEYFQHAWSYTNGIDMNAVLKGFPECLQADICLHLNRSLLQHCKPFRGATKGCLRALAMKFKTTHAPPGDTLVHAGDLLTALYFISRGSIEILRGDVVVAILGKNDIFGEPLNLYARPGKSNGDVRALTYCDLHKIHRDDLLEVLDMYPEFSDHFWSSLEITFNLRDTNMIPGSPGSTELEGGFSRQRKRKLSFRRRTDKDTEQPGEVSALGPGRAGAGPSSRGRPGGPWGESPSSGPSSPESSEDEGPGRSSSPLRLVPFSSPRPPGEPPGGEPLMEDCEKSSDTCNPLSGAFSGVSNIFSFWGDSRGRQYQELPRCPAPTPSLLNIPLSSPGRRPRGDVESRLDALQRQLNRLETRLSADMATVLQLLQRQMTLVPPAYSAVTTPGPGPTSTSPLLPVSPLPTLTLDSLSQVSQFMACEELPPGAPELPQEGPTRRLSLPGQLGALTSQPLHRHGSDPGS
Chain of CYP2D6 (P10635 whole entry): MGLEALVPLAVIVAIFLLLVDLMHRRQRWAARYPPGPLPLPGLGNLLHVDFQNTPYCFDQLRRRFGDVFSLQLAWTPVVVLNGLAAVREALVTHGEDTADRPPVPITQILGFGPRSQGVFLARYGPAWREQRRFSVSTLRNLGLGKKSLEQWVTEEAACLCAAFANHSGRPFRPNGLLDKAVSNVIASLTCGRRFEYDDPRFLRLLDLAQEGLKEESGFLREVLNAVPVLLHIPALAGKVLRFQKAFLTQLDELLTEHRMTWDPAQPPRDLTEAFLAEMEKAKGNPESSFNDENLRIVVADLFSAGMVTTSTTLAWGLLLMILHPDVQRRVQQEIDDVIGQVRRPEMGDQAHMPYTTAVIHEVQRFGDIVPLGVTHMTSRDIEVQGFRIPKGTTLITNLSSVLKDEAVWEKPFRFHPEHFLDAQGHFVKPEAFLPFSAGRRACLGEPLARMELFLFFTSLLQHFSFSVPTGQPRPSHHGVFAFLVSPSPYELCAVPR
Chain of CYP2C9 (P11712 whole entry): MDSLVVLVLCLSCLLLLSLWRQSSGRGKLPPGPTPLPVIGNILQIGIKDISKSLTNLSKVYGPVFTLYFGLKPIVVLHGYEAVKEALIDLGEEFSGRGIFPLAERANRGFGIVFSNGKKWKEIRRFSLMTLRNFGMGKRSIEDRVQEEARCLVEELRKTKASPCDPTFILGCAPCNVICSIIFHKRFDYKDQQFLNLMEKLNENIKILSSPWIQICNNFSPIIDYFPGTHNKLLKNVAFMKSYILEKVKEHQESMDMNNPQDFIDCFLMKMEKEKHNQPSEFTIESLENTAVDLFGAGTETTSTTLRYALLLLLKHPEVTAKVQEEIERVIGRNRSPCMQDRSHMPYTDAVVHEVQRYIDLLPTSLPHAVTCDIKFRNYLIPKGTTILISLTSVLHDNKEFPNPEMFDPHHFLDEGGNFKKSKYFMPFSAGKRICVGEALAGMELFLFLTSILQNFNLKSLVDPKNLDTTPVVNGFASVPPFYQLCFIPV
Chain of CYP2C19 (P33261 whole entry): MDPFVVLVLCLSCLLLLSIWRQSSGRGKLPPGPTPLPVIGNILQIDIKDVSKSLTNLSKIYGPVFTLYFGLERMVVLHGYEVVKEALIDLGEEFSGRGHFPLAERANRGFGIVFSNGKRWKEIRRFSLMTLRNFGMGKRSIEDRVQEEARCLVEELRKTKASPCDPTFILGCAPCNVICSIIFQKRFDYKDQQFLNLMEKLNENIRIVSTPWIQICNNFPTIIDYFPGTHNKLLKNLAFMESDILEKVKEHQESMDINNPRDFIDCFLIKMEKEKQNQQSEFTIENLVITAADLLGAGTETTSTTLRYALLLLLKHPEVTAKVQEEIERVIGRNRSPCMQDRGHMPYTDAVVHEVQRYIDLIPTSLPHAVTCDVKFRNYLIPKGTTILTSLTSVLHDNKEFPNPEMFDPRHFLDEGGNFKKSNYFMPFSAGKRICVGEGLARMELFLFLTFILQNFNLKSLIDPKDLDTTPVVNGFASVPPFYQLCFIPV
T1 sequence (P08183 whole entry): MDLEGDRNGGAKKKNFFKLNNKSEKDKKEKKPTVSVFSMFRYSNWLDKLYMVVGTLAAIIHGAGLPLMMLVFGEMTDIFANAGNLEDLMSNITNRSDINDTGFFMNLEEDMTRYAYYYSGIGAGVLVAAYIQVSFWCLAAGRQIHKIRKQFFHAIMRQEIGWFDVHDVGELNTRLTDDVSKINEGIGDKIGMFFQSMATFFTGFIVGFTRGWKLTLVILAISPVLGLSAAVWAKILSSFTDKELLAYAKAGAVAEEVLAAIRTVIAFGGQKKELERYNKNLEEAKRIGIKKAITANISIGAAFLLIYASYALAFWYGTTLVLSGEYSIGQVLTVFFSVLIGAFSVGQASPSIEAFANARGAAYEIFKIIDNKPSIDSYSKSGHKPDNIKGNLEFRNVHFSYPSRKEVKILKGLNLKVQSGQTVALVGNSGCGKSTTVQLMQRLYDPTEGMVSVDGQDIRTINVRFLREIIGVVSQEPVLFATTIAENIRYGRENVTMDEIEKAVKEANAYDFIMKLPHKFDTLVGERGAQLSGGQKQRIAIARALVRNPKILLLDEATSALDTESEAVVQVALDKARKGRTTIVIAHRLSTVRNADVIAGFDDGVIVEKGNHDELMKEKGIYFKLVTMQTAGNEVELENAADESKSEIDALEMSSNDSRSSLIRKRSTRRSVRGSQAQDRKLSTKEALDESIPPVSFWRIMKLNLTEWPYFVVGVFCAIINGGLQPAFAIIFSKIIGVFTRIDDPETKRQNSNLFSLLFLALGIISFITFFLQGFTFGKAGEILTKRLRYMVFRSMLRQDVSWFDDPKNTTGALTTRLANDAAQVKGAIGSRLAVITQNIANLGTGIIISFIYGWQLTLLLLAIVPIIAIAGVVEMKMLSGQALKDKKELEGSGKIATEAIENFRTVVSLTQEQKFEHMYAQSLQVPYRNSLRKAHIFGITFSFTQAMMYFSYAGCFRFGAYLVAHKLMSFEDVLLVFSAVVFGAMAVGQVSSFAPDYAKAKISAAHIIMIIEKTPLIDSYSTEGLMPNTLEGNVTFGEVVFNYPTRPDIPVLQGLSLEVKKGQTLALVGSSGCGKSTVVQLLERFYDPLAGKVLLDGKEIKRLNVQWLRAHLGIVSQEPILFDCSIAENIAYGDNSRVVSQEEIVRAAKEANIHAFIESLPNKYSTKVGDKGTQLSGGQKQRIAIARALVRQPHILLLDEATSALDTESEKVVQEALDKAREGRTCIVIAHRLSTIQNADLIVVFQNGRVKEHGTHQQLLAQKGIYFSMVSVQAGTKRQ
Chain of CYP3A4 (P08684 whole entry): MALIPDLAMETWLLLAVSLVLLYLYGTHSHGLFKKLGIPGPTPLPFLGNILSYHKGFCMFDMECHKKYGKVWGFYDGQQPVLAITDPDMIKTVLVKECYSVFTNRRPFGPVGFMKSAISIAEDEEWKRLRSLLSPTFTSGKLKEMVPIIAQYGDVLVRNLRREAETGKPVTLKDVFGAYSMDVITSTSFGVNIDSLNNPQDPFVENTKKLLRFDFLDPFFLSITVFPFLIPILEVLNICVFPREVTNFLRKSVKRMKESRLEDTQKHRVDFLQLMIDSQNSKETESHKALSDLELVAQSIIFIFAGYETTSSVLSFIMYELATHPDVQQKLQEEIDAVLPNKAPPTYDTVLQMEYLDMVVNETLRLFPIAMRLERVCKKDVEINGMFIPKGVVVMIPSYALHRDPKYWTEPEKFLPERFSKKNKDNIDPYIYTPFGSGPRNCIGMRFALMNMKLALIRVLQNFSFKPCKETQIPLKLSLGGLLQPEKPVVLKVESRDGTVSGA

| SMILES | O. volvulus L5 % inhibition of viability (O. volvulus L5 larvae) | Papp A→B (P-gp (MDR1)) | IC50 (hERG) | CC50 [2] | fraction unbound [3] | fraction unbound [4] | IC50 (CYP3A4) | IC50 (CYP2D6) | IC50 (CYP2C9) | IC50 (CYP2C19) | IC50 (CYP2C8) | also measured |
| --- | --- | --- | --- | --- | --- | --- | --- | --- | --- | --- | --- | --- |
| Cc1cccnc1Nc1nc(-c2ccc(OC3CC3)cn2)ns1 [Compound 11, 3-(5-Cyclopropoxypyridin-2-yl)-N-(3-methylpyridin-2-yl)-1,2,4-thiadiazol-5-amine] | 100% |  |  |  |  |  |  |  |  |  |  |  |
| CC(C)Oc1ccc(-c2nsc(Nc3ncccc3N(C)C(=O)C3CC3)n2)nc1 [Compound 50, N-(2-((3-(5-Isopropoxypyridin-2-yl)-1,2,4-thiadiazol-5-yl)amino)pyridin-3-yl)-N-methylcyclopropanecarboxamide] | 100% | 19.3 ×10⁻⁶ cm/s |  |  |  |  |  |  |  |  |  |  |
| Cc1cccnc1Nc1nc(-c2ccc(OC(C)C)cn2)ns1 [Compound 10, 3-(5-Isopropoxypyridin-2-yl)-N-(3-methylpyridin-2-yl)-1,2,4-thiadiazol-5-amine] |  |  |  |  |  |  |  |  |  |  |  | tolerability in mice ([1]; reason for lowering the dose from 30 to 10 mg/kg): tolerability issues |
| CC(=O)N(C)c1cccnc1Nc1nc(-c2ccc(OC(C)C)cn2)ns1 [Compound 47, N-(2-((3-(5-Isopropoxypyridin-2-yl)-1,2,4-thiadiazol-5-yl)amino)pyridin-3-yl)-N-methylacetamide] | 100% | 3.9 ×10⁻⁶ cm/s | > 30 µM | 106 µM | 0.093 | 0.05 | > 30 µM | 30 µM | 5.7 µM | 29 µM | > 30 µM |  |
| CC(C)Oc1ccc(-c2nsc(Nc3ncccc3N(C)C)n2)nc1 [Compound 31, N^2-(3-(5-Isopropoxypyridin-2-yl)-1,2,4-thiadiazol-5-yl)-N3,N3-dimethylpyridine-2,3-diamine] | 100% |  | 11.4 µM | 36 µM | < 0.01 | < 0.01 | 22 µM | > 30 µM | 5.5 µM | 20 µM | 7.1 µM | adult worm burden reduction ([1]; mice infected SC with 40 L3 larvae, 30 mg/kg BID 7d oral): -97.1%; reduction of adult worm burden ([1]; 6 days of dosing): 97% |
| CN(C)c1cccnc1Nc1nc(-c2ccc(OC3CC3)cn2)ns1 [Compound 32] | 83% |  |  |  |  |  |  |  |  |  |  | reduction of adult worm burden ([1]; 7 days of dosing): 70%; adult worm burden reduction ([1]; naturally infected mice, 30 mg/kg BID 6d oral): -69.9% |
